Experimental data from PubChem BioAssay AID248 (DTP/NCI, 2004).
Values joined by “and” are separate entries in the source; they are usually repeats but may differ in a detail not shown here. Equal values may be shown once. Toxic doses and inconclusive results are not listed. No stated cut-off is given here; in the data, active means T/C of 150% or more; inactive means T/C below 125%.

System: L1210 leukemia ip in BDF1 mice, survival T/C
Test: NCI In Vivo Anticancer Drug Screen. Data for tumor model L1210 Leukemia (intraperitoneal) in B6D2F1 (BDF1) mice
Settings: endpoint: mean survival time, higher = longer survival
Method in brief: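 In this screen, tumor-bearing mice given compound are compared to those given vehicle, and their survival values are reported as a treated-to-control quotient.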

[1] = dose: 50.0 mg/kg/injection, schedule: Q01DX009 (ip), vehicle: Klucel (hydroxypropylcellulose) (HPC)
[2] = dose: 100.0 mg/kg/injection, schedule: Q01DX009 (ip), vehicle: Klucel (hydroxypropylcellulose) (HPC)
[3] = dose: 200.0 mg/kg/injection, schedule: Q01DX009 (ip), vehicle: Klucel (hydroxypropylcellulose) (HPC)
[4] = dose: 100.0 mg/kg/injection, schedule: Q01DX009 (ip), vehicle: saline with Tween-80
[5] = dose: 200.0 mg/kg/injection, schedule: Q01DX009 (ip), vehicle: saline with Tween-80
[6] = dose: 400.0 mg/kg/injection, schedule: Q01DX009 (ip), vehicle: Klucel (hydroxypropylcellulose) (HPC)
[7] = dose: 100.0 mg/kg/injection, schedule: Q04DX002 (ip), vehicle: saline with Tween-80
[8] = dose: 200.0 mg/kg/injection, schedule: Q04DX002 (ip), vehicle: saline with Tween-80
[9] = dose: 100.0 mg/kg/injection, schedule: Q04DX003 (ip), vehicle: Klucel (hydroxypropylcellulose) (HPC)
[10] = dose: 200.0 mg/kg/injection, schedule: Q04DX003 (ip), vehicle: Klucel (hydroxypropylcellulose) (HPC)
[11] = dose: 400.0 mg/kg/injection, schedule: Q04DX003 (ip), vehicle: Klucel (hydroxypropylcellulose) (HPC)
[12] = dose: 100.0 mg/kg/injection, schedule: Q01DX009 (ip), vehicle: saline
[13] = dose: 100.0 mg/kg/injection, schedule: Q04DX003 (ip), vehicle: saline with Tween-80
[14] = dose: 200.0 mg/kg/injection, schedule: Q01DX009 (ip), vehicle: saline
[15] = dose: 200.0 mg/kg/injection, schedule: Q04DX003 (ip), vehicle: saline with Tween-80
[16] = dose: 400.0 mg/kg/injection, schedule: Q01DX009 (ip), vehicle: saline
[17] = dose: 400.0 mg/kg/injection, schedule: Q04DX003 (ip), vehicle: saline with Tween-80
[18] = dose: 100.0 mg/kg/injection, schedule: Q04DX002 (ip), vehicle: Klucel (hydroxypropylcellulose) (HPC)
[19] = dose: 200.0 mg/kg/injection, schedule: Q04DX002 (ip), vehicle: Klucel (hydroxypropylcellulose) (HPC)
[20] = dose: 400.0 mg/kg/injection, schedule: Q04DX002 (ip), vehicle: Klucel (hydroxypropylcellulose) (HPC)

Measured: T/C

O=[N+]([O-])/C(=C/C=C/c1ccccc1)c1ccccc1
inactive: [1] 96 % of control | [2] 89 % of control | [3] 86 % of control

CCCCCCCCc1ccc(O)c(Cl)c1
inactive: [4] 95 % of control | [5] 96 % of control

CC(=O)c1cccc(NC(=O)Nc2cccc(O)c2)c1
inactive: [2] 101 % of control | [3] 97 % of control | [6] 101 % of control

COc1cc([N+](=O)[O-])ccc1NC(=O)NCCc1ccc(OC)c(OC)c1
inactive: [2] 93 % of control | [3] 96 % of control | [6] 100 % of control

COC(=O)c1ccc(OC(=O)Nc2cccc(Cl)c2C)cc1
inactive: [4] 98 % of control and 100 % of control | [7] 93 % of control and 91 % of control | [5] 95 % of control and 91 % of control | [8] 96 % of control and 87 % of control | dose: 400.0 mg/kg/injection, schedule: Q04DX002 (ip), vehicle: saline with Tween-80 96 % of control and 97 % of control

CCCCCCCCCCCC(=O)N(C)C
inactive: [9] 109 % of control | [10] 111 % of control | [11] 109 % of control

CC(=O)Nc1ccc(NC(=O)Nc2ccccc2F)cc1
inactive: [2] 98 % of control | [3] 96 % of control | [6] 102 % of control

CCOC(=O)c1sc(NC(C)=O)c(C(=O)OCC)c1C
inactive: [12] 96 % of control | [13] 98 % of control | [14] 101 % of control | [15] 114 % of control | [16] 101 % of control | [17] 96 % of control

SCCS
inactive: dose: 50.0 mg/kg/injection, schedule: Q04DX002 (ip), vehicle: saline with Tween-80 101 % of control | [7] 101 % of control | [8] 86 % of control

Cc1cnc(SCc2ccc(Cl)cc2)[nH]c1=S
inactive: dose: 25.0 mg/kg/injection, schedule: Q01DX Z (ip), vehicle: methylcellulose (MC) 87 % of control | dose: 50.0 mg/kg/injection, schedule: Q01DX Z (ip), vehicle: methylcellulose (MC) 89 % of control

COc1c(NC(=O)CC(C)=O)cccc1[N+](=O)[O-]
inactive: [2] 103 % of control | [18] 92 % of control | [3] 101 % of control | [19] 92 % of control | [6] 98 % of control | [20] 101 % of control

CC1=CP(=O)(Oc2ccc([N+](=O)[O-])cc2)CC1 (centres undefined)
inactive: dose: 75.0 mg/kg/injection, schedule: Q01DX001 (ip), vehicle: saline 102 % of control

CC(=O)Nc1ccc(OC(=O)Nc2ccc(Cl)c([N+](=O)[O-])c2)cc1
inactive: [2] 97 % of control | [9] 112 % of control | [3] 104 % of control | [10] 97 % of control | [6] 93 % of control | [11] 92 % of control

Cc1ccc(S(=O)N(OCc2ccccc2)S(=O)c2ccc(C)cc2)cc1 (centres undefined)
inactive: dose: 100.0 mg/kg/injection, schedule: Q04DX002 (ip), vehicle: other 100 % of control | dose: 200.0 mg/kg/injection, schedule: Q04DX002 (ip), vehicle: other 100 % of control | dose: 400.0 mg/kg/injection, schedule: Q04DX002 (ip), vehicle: other 100 % of control

COc1ccc(C(C)(C#N)Nc2ccccc2)cc1 (centres undefined)
inactive: [13] 98 % of control | [15] 96 % of control

COc1ccc(OC)c(-c2cc(-c3ccccc3)nc(-c3cccc([N+](=O)[O-])c3)c2)c1
inactive: dose: 100.0 mg/kg/injection, schedule: Q04DX002 (ip), vehicle: gum acacia 102 % of control | dose: 200.0 mg/kg/injection, schedule: Q04DX002 (ip), vehicle: gum acacia 97 % of control | dose: 400.0 mg/kg/injection, schedule: Q04DX002 (ip), vehicle: gum acacia 91 % of control

CC(=O)Oc1cc(NC(=O)c2ccccc2)ccc1NC(=O)c1ccccc1
inactive: dose: 100.0 mg/kg/injection, schedule: Q01DX001 (ip), vehicle: Klucel (hydroxypropylcellulose) (HPC) 93 % of control | [2] 89 % of control | dose: 200.0 mg/kg/injection, schedule: Q01DX001 (ip), vehicle: Klucel (hydroxypropylcellulose) (HPC) 92 % of control | [3] 90 % of control | dose: 400.0 mg/kg/injection, schedule: Q01DX001 (ip), vehicle: Klucel (hydroxypropylcellulose) (HPC) 104 % of control | [6] 100 % of control

COc1ccc(/C=C2\N=C(c3ccc([N+](=O)[O-])cc3)OC2=O)cc1OC
inactive: [2] 91 % of control | [3] 93 % of control | [6] 101 % of control

C=CCc1ccc(OC(=O)Nc2ccccc2)c(OC)c1
inactive: [18] 87 % of control | [19] 87 % of control | [20] 87 % of control

N#Cc1ccc(Cl)c2c1C(=O)c1ccccc1C2=O
inactive: dose: 100.0 mg/kg/injection, schedule: Q01DX001 (ip), vehicle: saline 98 % of control | [12] 100 % of control | dose: 200.0 mg/kg/injection, schedule: Q01DX001 (ip), vehicle: saline 98 % of control | [14] 94 % of control | dose: 400.0 mg/kg/injection, schedule: Q01DX001 (ip), vehicle: saline 95 % of control | [16] 92 % of control

CCOC(=O)Cc1cc(=O)c2ccc(Cl)cc2[nH]1
inactive: dose: 100.0 mg/kg/injection, schedule: Q01DX001 (ip), vehicle: other 92 % of control | dose: 200.0 mg/kg/injection, schedule: Q01DX001 (ip), vehicle: other 97 % of control | dose: 400.0 mg/kg/injection, schedule: Q01DX001 (ip), vehicle: other 92 % of control

c1ccc(CNc2nccs2)cc1
inactive: dose: 75.0 mg/kg/injection, schedule: Q01DX001 (ip), vehicle: carboxymethylcellulose (CMC) 96 % of control | dose: 150.0 mg/kg/injection, schedule: Q01DX001 (ip), vehicle: carboxymethylcellulose (CMC) 91 % of control | dose: 300.0 mg/kg/injection, schedule: Q01DX001 (ip), vehicle: carboxymethylcellulose (CMC) 95 % of control

Nc1ccccc1SC1CC(=O)N(c2ccc(Br)cc2Cl)C1=O (centres undefined)
inactive: [1] 90 % of control and 92 % of control | [2] 91 % of control | [9] 98 % of control | [3] 93 % of control and 96 % of control and 91 % of control | [10] 93 % of control | [6] 96 % of control | [11] 93 % of control

c1ccc(C2COC3(CCCCC3)O2)cc1 (centres undefined)
inactive: dose: 222.0 mg/kg/injection, schedule: Q01DX Z (ip), vehicle: methylcellulose (MC) 90 % of control | dose: 333.0 mg/kg/injection, schedule: Q01DX Z (ip), vehicle: methylcellulose (MC) 95 % of control

CC(C)C(NC(=O)C1CSC(C)(C)N1C=O)C(=O)OC1CCCCC1 (centres undefined)
inactive: [13] 97 % of control | [15] 101 % of control | [17] 90 % of control

CSc1nc2c(=O)[nH][nH]c(=O)c2n1Cc1ccccc1
inactive: dose: 100.0 mg/kg/injection, schedule: Q01DX001 (ip), vehicle: carboxymethylcellulose (CMC) 92 % of control | dose: 200.0 mg/kg/injection, schedule: Q01DX001 (ip), vehicle: carboxymethylcellulose (CMC) 90 % of control | dose: 400.0 mg/kg/injection, schedule: Q01DX001 (ip), vehicle: carboxymethylcellulose (CMC) 95 % of control

Cc1ncc(C#N)c(=O)[nH]1
inactive: dose: 25.0 mg/kg/injection, schedule: Q04DX003 (ip), vehicle: saline with Tween-80 92 % of control | dose: 50.0 mg/kg/injection, schedule: Q04DX003 (ip), vehicle: saline with Tween-80 90 % of control | [13] 90 % of control

COC1(OC)C2CCC1C1OC12 (centres undefined)
inactive: dose: 100.0 mg/kg/injection, schedule: Q04DX002 (ip), vehicle: saline 107 % of control | dose: 200.0 mg/kg/injection, schedule: Q04DX002 (ip), vehicle: saline 97 % of control | dose: 400.0 mg/kg/injection, schedule: Q04DX002 (ip), vehicle: saline 97 % of control

c1ccc(CSSCc2ccccc2)cc1
inactive: [2] 100 % of control | dose: 100.0 mg/kg/injection, schedule: Q04DX003 (ip), vehicle: saline 92 % of control | [3] 96 % of control | dose: 200.0 mg/kg/injection, schedule: Q04DX003 (ip), vehicle: saline 88 % of control | [6] 102 % of control | dose: 400.0 mg/kg/injection, schedule: Q04DX003 (ip), vehicle: saline 92 % of control

Cc1cc(C(=O)O)c2cc(Br)ccc2n1
inactive: dose: 25.0 mg/kg/injection, schedule: Q01DX009 (ip), vehicle: Klucel (hydroxypropylcellulose) (HPC) 100 % of control | [1] 98 % of control | [2] 96 % of control

CC(C)(C)OC(=O)N/N=C1\CC2CCC1C2 (centres undefined)
inactive: dose: 100.0 mg/kg/injection, schedule: Q04DX003 (ip), vehicle: acetone 95 % of control
